Experimental data: the NIST ThermoML archive (doi:10.1021/je501041r)
Numbers after ± are expanded uncertainties.

Test: xn = mol fraction of the nth substance listed
Details: 101 kPa, Liquid; for viscosity: Capillary tube (Ostwald / Ubbelohde) method; for mass density: Vibrating tube method

CC(C)CC(C)(C)C [2,2,4-trimethylpentane] + CCCO
Details | mass density [kg/m3] | viscosity [mPa·s]
298.15 K, x1 = 0.02 | 795.39 ± 2 | –
298.15 K, x1 = 0.04 | 790.82 ± 2 | –
298.15 K, x1 = 0.06 | 786.22 ± 2 | –
298.15 K, x1 = 0.1 | 777.82 ± 2 | 1.518 ± 0.018
298.15 K, x1 = 0.2 | 759.71 ± 2 | 1.231 ± 0.014
298.15 K, x1 = 0.3 | 744.88 ± 2 | 1.007 ± 0.012
298.15 K, x1 = 0.4 | 732.42 ± 2 | 0.84 ± 0.01
298.15 K, x1 = 0.4999 | 721.93 ± 2 | 0.718 ± 0.008
298.15 K, x1 = 0.5996 | 712.88 ± 2 | 0.644 ± 0.008
298.15 K, x1 = 0.6998 | 704.9 ± 2 | 0.572 ± 0.007
298.15 K, x1 = 0.7995 | 698.16 ± 2 | 0.519 ± 0.006
298.15 K, x1 = 0.9 | 692.36 ± 2 | 0.491 ± 0.006
298.15 K, x1 = 1 | 687.82 ± 2 | 0.478 ± 0.006
303.15 K, x1 = 0.02 | 791.36 ± 2 | –
303.15 K, x1 = 0.04 | 786.77 ± 2 | –
303.15 K, x1 = 0.06 | 782.15 ± 2 | –
303.15 K, x1 = 0.1 | 773.72 ± 2 | 1.361 ± 0.016
303.15 K, x1 = 0.2 | 755.54 ± 2 | 1.113 ± 0.013
303.15 K, x1 = 0.3 | 740.67 ± 2 | 0.909 ± 0.011
303.15 K, x1 = 0.4 | 728.17 ± 2 | 0.769 ± 0.009
303.15 K, x1 = 0.4999 | 717.66 ± 2 | 0.664 ± 0.008
303.15 K, x1 = 0.5996 | 708.61 ± 2 | 0.585 ± 0.007
303.15 K, x1 = 0.6998 | 700.62 ± 2 | 0.531 ± 0.006
303.15 K, x1 = 0.7995 | 693.9 ± 2 | 0.488 ± 0.006
303.15 K, x1 = 0.9 | 688.13 ± 2 | 0.464 ± 0.006
303.15 K, x1 = 1 | 683.68 ± 2 | 0.453 ± 0.005
308.15 K, x1 = 0.02 | 787.26 ± 2 | –
308.15 K, x1 = 0.04 | 782.66 ± 2 | –
308.15 K, x1 = 0.06 | 778.03 ± 2 | –
308.15 K, x1 = 0.1 | 769.57 ± 2 | 1.223 ± 0.014
308.15 K, x1 = 0.2 | 751.33 ± 2 | 1.004 ± 0.012
308.15 K, x1 = 0.3 | 736.41 ± 2 | 0.831 ± 0.01
308.15 K, x1 = 0.4 | 723.88 ± 2 | 0.709 ± 0.008
308.15 K, x1 = 0.4999 | 713.35 ± 2 | 0.613 ± 0.007
308.15 K, x1 = 0.5996 | 704.28 ± 2 | 0.543 ± 0.006
308.15 K, x1 = 0.6998 | 696.31 ± 2 | 0.5 ± 0.006
308.15 K, x1 = 0.7995 | 689.61 ± 2 | 0.46 ± 0.006
308.15 K, x1 = 0.9 | 683.86 ± 2 | 0.438 ± 0.005
308.15 K, x1 = 1 | 679.52 ± 2 | 0.429 ± 0.005
313.15 K, x1 = 0.02 | 783.12 ± 2 | –
313.15 K, x1 = 0.04 | 778.51 ± 2 | –
313.15 K, x1 = 0.06 | 773.86 ± 2 | –
313.15 K, x1 = 0.1 | 765.38 ± 2 | 1.1 ± 0.013
313.15 K, x1 = 0.2 | 747.08 ± 2 | 0.92 ± 0.011
313.15 K, x1 = 0.3 | 732.1 ± 2 | 0.758 ± 0.009
313.15 K, x1 = 0.4 | 719.54 ± 2 | 0.648 ± 0.008
313.15 K, x1 = 0.4999 | 708.99 ± 2 | 0.569 ± 0.007
313.15 K, x1 = 0.5996 | 699.91 ± 2 | 0.51 ± 0.006
313.15 K, x1 = 0.6998 | 691.95 ± 2 | 0.467 ± 0.006
313.15 K, x1 = 0.7995 | 685.26 ± 2 | 0.434 ± 0.005
313.15 K, x1 = 0.9 | 679.55 ± 2 | 0.414 ± 0.005
313.15 K, x1 = 1 | 675.32 ± 2 | 0.408 ± 0.005
318.15 K, x1 = 0.02 | 778.94 ± 2 | –
318.15 K, x1 = 0.04 | 774.31 ± 2 | –
318.15 K, x1 = 0.06 | 769.64 ± 2 | –
318.15 K, x1 = 0.1 | 761.14 ± 2 | 0.994 ± 0.012
318.15 K, x1 = 0.2 | 742.76 ± 2 | 0.833 ± 0.01
318.15 K, x1 = 0.3 | 727.73 ± 2 | 0.693 ± 0.008
318.15 K, x1 = 0.4 | 715.13 ± 2 | 0.596 ± 0.007
318.15 K, x1 = 0.4999 | 704.58 ± 2 | 0.529 ± 0.006
318.15 K, x1 = 0.5996 | 695.48 ± 2 | 0.479 ± 0.006
318.15 K, x1 = 0.6998 | 687.53 ± 2 | 0.439 ± 0.005
318.15 K, x1 = 0.7995 | 680.87 ± 2 | 0.41 ± 0.005
318.15 K, x1 = 0.9 | 675.2 ± 2 | 0.393 ± 0.005
318.15 K, x1 = 1 | 671.1 ± 2 | 0.388 ± 0.005
323.15 K, x1 = 0.02 | 774.7 ± 2 | –
323.15 K, x1 = 0.04 | 770.05 ± 2 | –
323.15 K, x1 = 0.06 | 765.36 ± 2 | –
323.15 K, x1 = 0.1 | 756.84 ± 2 | 0.903 ± 0.011
323.15 K, x1 = 0.2 | 738.39 ± 2 | 0.767 ± 0.009
323.15 K, x1 = 0.3 | 723.3 ± 2 | 0.648 ± 0.008
323.15 K, x1 = 0.4 | 710.67 ± 2 | 0.554 ± 0.007
323.15 K, x1 = 0.4999 | 700.11 ± 2 | 0.491 ± 0.006
323.15 K, x1 = 0.5996 | 691 ± 2 | 0.445 ± 0.005
323.15 K, x1 = 0.6998 | 683.07 ± 2 | 0.413 ± 0.005
323.15 K, x1 = 0.7995 | 676.44 ± 2 | 0.388 ± 0.005
323.15 K, x1 = 0.9 | 670.81 ± 2 | 0.373 ± 0.005
323.15 K, x1 = 1 | 666.85 ± 2 | 0.369 ± 0.005
